# Reference: US11821001B2, “Cell culture medium for eukaryotic cells” (Regeneron Pharmaceuticals, Inc., priority 2019, dated 2023)
# Test system: titer of VEGFR binding protein 1
# Assay: Correlation and regression of component concentration against protein titer of VEGFR binding protein 1
# Assay type: cell-based
# Conditions: regression line; for protein titer versus concentration of the component in the cell culture medium: N=70, extrapolated estimation from soy hydrolysate data, FIG. 3 / FIG. 5; for protein titer versus concentration of the component in the soy hydrolysate added to the cell culture medium: N=70, enriched medium (soy hydrolysate), FIG. 2 / FIG. 4
# Procedure: The impact of 5-methythioadenosine on production of a recombinant protein (VEGFR binding protein 1) was studied by investigating the protein titer (g/L) at different concentrations of 5-methythioadenosine present in the cell culture medium.
# An enriched medium (soy hydrolysate) comprising 5-methythioadenosine was added to the cell culture medium.
# Based on the correlation data obtained from studying the effect of 5-methythioadenosine concentrations in the enriched medium (soy hydrolysate) supplemented to the cell culture medium (Example 2, FIG. 2), an estimation as to the optimum concentration of 5-MTA in a cell culture was made.
# The impact of nicotinamide on a recombinant protein (VEGFR binding protein 1) titer was also studied by investigating the protein titer (g/L) at different concentrations of nicotinamide present in the cell culture medium.
# An enriched medium (soy hydrolysate) comprising nicotinamide was added to the cell culture medium at varying concentrations.
# Based on the correlation data obtained from studying the effect of nicotinamide concentration in enriched medium (soy hydrolysate) supplemented to the cell culture medium (Example 4, FIG. 4), an estimation as to the optimum concentration of nicotinamide in a cell culture was made.
SMILES,protein titer versus concentration of the component in the cell culture medium,protein titer versus concentration of the component in the soy hydrolysate added to the cell culture medium
"CSC[C@H]1O[C@@H](n2cnc3c(N)ncnc32)[C@H](O)[C@@H]1O [5-methylthioadenosine (MTA), 5-Deoxy-5′-methylthioadenosine]",titer can vary linearly,titer varied linearly
"NC(=O)c1cccnc1 [Nicotinamide, 3-Pyridinecarboxamide]",titer can vary linearly,titer varied linearly
